Data on six compounds can be found in US8501446B2 (Vertex Pharmaceuticals Incorporated, priority 2004, dated 2013).

The structures appear in SMILES notation.

In one experiment the target is T1, JAK3 (Homo sapiens, UniProt P52333).
T1 sequence (P52333 1-1124): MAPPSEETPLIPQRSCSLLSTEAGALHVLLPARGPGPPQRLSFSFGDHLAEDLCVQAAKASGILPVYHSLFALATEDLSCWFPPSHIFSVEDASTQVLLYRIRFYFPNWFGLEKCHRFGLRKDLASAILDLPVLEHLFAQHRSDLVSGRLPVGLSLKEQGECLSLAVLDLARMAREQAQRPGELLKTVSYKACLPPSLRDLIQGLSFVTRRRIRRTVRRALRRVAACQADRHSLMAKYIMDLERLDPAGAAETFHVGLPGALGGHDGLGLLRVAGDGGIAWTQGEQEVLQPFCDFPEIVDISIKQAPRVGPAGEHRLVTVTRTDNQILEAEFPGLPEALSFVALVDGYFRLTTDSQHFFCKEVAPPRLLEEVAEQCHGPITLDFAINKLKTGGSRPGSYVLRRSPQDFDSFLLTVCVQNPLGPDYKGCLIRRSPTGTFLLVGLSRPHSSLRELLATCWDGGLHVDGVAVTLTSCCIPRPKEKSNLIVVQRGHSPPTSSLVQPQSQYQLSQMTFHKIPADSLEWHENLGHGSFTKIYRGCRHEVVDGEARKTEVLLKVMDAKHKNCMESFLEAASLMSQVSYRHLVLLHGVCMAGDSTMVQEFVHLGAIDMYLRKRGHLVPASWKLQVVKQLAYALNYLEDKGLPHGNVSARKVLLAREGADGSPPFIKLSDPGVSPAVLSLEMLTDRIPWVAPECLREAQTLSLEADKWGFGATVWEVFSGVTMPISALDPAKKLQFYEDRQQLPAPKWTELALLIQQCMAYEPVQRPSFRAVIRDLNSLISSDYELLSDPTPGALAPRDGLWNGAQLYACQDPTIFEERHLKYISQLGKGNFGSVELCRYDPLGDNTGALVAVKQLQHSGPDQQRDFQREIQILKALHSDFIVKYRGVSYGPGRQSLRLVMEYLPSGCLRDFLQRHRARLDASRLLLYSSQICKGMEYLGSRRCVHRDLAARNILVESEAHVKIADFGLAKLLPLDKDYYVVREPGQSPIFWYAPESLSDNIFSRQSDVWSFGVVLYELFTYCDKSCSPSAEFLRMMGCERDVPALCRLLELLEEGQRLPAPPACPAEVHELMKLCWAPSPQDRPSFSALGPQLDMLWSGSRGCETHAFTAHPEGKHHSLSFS
The experiment in a line: JAK3 inhibition assay (standard radioactive enzyme assay). It is filed as biochemical. The note with it: average Ki if more than one value determined.

A further experiment deals with T2, ROCK I (AA 6-553) (Homo sapiens, UniProt Q13464).
T2 construct: ROCK I (AA 6-553)
T2 sequence (Q13464 6-553, species assumed): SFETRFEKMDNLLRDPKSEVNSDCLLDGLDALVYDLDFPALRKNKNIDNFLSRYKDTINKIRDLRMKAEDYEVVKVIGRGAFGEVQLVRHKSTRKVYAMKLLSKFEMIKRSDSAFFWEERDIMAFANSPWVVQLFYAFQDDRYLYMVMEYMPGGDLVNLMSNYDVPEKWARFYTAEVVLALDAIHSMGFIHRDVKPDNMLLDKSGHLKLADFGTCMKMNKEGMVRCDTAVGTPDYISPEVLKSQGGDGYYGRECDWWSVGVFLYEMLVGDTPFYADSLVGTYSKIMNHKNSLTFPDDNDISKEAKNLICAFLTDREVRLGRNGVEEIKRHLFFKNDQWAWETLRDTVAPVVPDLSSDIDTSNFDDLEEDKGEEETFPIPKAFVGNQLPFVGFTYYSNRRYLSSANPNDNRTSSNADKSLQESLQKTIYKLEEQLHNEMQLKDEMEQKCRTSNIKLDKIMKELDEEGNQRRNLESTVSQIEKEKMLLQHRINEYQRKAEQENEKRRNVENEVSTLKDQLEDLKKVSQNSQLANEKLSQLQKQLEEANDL
The experiment in a line: ROCK inhibition assay, standard coupled enzyme system ("Enzyme"). The format is biochemical. The settings on record: enzyme-linked assay. A digest of the protocol: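 ROCK I (AA 6-553) at 45 nM and 30 °C with 45 μM ATP and 200 μM peptide, in 100 mM HEPES pH 7.5, 10 mM MgCl2, 25 mM NaCl, 2 mM DTT, 1.5% DMSO. ADP output read by a PK/LDH coupled system: 2.5 mM PEP, 350 μM NADH, 30 μg/ml PK, 10 μg/ml LDH.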

For `CC(=O)N1[C@H](C)CN(c2cccc(-c3c[nH]c4ncc(Cl)cc34)n2)C[C@@H]1C` [Compound 19], the Ki on JAK3 and on ROCK I (AA 6-553) was less than 500 nM in each case.

Take `C[C@H](Nc1nc(-c2c[nH]c3ncc(Cl)cc23)ncc1F)C(=O)NCC(F)(F)F` [Compound 369]: the Ki on JAK3 is less than 500 nM; on ROCK I (AA 6-553) it was 500 to 5000 nM.

For the compound `C[C@H](Nc1cccc(-c2c[nH]c3ncc(Cl)cc23)n1)c1ccc(F)cc1` [Compound 395], the Ki at JAK3 was less than 500 nM; on ROCK I (AA 6-553) it was 500 to 5000 nM.

As to `CCOC(=O)N1CCCN(c2nccc(-c3c[nH]c4ncc(OC)cc34)n2)CC1` [Compound 33], the Ki on JAK3 and at ROCK I (AA 6-553) was less than 500 nM each time.

With `COc1cnc2[nH]cc(-c3cccc(N4C[C@@H](C)N(C(C)=O)[C@@H](C)C4)n3)c2c1` [Compound 18], the Ki on JAK3 was less than 500 nM; at ROCK I (AA 6-553), 500 to 5000 nM.

Take `COC(=O)c1cnc2[nH]cc(-c3cccc(N4C[C@@H](C)N(C(C)=O)[C@@H](C)C4)n3)c2c1` [Compound 35]: the Ki at JAK3 and at ROCK I (AA 6-553) was less than 500 nM in each case.

As usually defined, the Ki is a dissociation constant, usually derived from enzyme kinetics or from competition with a known ligand.
